Data as given in the supplement of paper PMC11451515.

Assays:
Settings in all cases: 48 h
P12-Ichikawa [1] = assay: AUC of viability dose-response curve (% viability x log10 dose units); higher = less sensitive
Method in brief: (§1)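 Leukemia cells adapted to each medium were seeded at 500 or 1000 cells/well in 1536-well plates and dosed with library compounds in DMSO at 11 threefold doses from 47 μM to 0.79 nM for 48 h at 37°C. CellTiter-Glo One luminescence was normalised per plate to DMSO and cell-free wells, then fitted with a four-parameter log-logistic model over log10 doses. Area under the curve was taken from this fit by the trapezoidal rule, with curves above full viability scaled and curves failing quality control removed.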

NOMO1 [2] = assay: as above
Method in brief: as §1

P12-Ichikawa [3] = assay: cell viability relative to DMSO control; higher = less cytotoxic
Method in brief: (§2)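 Viability was expressed as a per-plate percentage of DMSO wells, with cell-free wells as background. Leukemia cells (NOMO1 or SEM at 500 cells/well, P12-Ichikawa at 1000 cells/well) were adapted for at least four passages in each medium and seeded in 1536-well plates (5 μl). Library compounds in DMSO were pin-dosed over an 11-point threefold series from 47 μM to 0.79 nM, and CellTiter-Glo One luminescence was read after 48 h at 37°C.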

NOMO1 [4] = assay: as above
Method in brief: as §2

SEM cells [5] = assay: as above
Method in brief: as §2

SEM cells [6] = assay: AUC of viability dose-response curve (% viability x log10 dose units); higher = less sensitive
Method in brief: as §1

CNC(=O)Nc1ccc(-c2nc(N3CC4CCC(C3)O4)c3cnn(C4CCC5(CC4)OCCO5)c3n2)cc1
AUC of viability dose-response curve
Settings	HPLM + 10% dialyzed FBS	RPMI 5 mM glucose + 10% FBS	RPMI 5 mM glucose + 10% dialyzed FBS
NOMO1 [2]	359	367	338
P12-Ichikawa [1]	389	324	336

cell viability [%]
Settings	NOMO1 [4]	P12-Ichikawa [3]	SEM cells [5]
HPLM + 10% dialyzed FBS, 0.000781 µM	101	107	109
HPLM + 10% dialyzed FBS, 0.00234 µM	88.6	106	106
HPLM + 10% dialyzed FBS, 0.00702 µM	97.2	95.7	97.8
HPLM + 10% dialyzed FBS, 0.0211 µM	86.1	92.5	83.9
HPLM + 10% dialyzed FBS, 0.0632 µM	73	95.4	73.8
HPLM + 10% dialyzed FBS, 0.19 µM	75.9	82.7	53.6
HPLM + 10% dialyzed FBS, 0.569 µM	70.4	86.1	58.1
HPLM + 10% dialyzed FBS, 1.71 µM	63.8	76.7	53
HPLM + 10% dialyzed FBS, 5.12 µM	63.3	74.2	45.9
HPLM + 10% dialyzed FBS, 15.4 µM	57.2	74.9	34.3
HPLM + 10% dialyzed FBS, 46.1 µM	51.6	72.5	36.9
RPMI 5 mM glucose + 10% FBS, 0.000781 µM	108	96.9	76.6
RPMI 5 mM glucose + 10% FBS, 0.00234 µM	115	84.1	77.9
RPMI 5 mM glucose + 10% FBS, 0.00702 µM	118	75.8	65.6
RPMI 5 mM glucose + 10% FBS, 0.0211 µM	99.3	75.5	51
RPMI 5 mM glucose + 10% FBS, 0.0632 µM	91.4	69.8	43.2
RPMI 5 mM glucose + 10% FBS, 0.19 µM	81.1	65.8	36.8
RPMI 5 mM glucose + 10% FBS, 0.569 µM	74.7	64.2	40.1
RPMI 5 mM glucose + 10% FBS, 1.71 µM	73	60.8	34
RPMI 5 mM glucose + 10% FBS, 5.12 µM	72.2	57.1	25.3
RPMI 5 mM glucose + 10% FBS, 15.4 µM	65.1	49.6	22.9
RPMI 5 mM glucose + 10% FBS, 46.1 µM	69.8	53	14.5
RPMI 5 mM glucose + 10% dialyzed FBS, 0.000781 µM	105	106	105
RPMI 5 mM glucose + 10% dialyzed FBS, 0.00234 µM	101	98	106
RPMI 5 mM glucose + 10% dialyzed FBS, 0.00702 µM	84.3	91.1	88.7
RPMI 5 mM glucose + 10% dialyzed FBS, 0.0211 µM	79.3	82.1	80.7
RPMI 5 mM glucose + 10% dialyzed FBS, 0.0632 µM	77.6	81.8	71.6
RPMI 5 mM glucose + 10% dialyzed FBS, 0.19 µM	68.5	70.5	56.2
RPMI 5 mM glucose + 10% dialyzed FBS, 0.569 µM	71.5	67.4	59.4
RPMI 5 mM glucose + 10% dialyzed FBS, 1.71 µM	62	65.2	53.9
RPMI 5 mM glucose + 10% dialyzed FBS, 5.12 µM	62	56.8	39.6
RPMI 5 mM glucose + 10% dialyzed FBS, 15.4 µM	55.1	44.8	31.3
RPMI 5 mM glucose + 10% dialyzed FBS, 46.1 µM	52.4	50.9	41.4

O=C(Nc1cccnn1)N1CCC(=Cc2cccc(Oc3ccc(C(F)(F)F)cn3)c2)CC1
cell viability [%]
Settings	NOMO1 [4]	P12-Ichikawa [3]	SEM cells [5]
HPLM + 10% dialyzed FBS, 0.000781 µM	72.8	92.9	81.8
HPLM + 10% dialyzed FBS, 0.00234 µM	98.3	94.1	86.8
HPLM + 10% dialyzed FBS, 0.00702 µM	109	91.4	84.4
HPLM + 10% dialyzed FBS, 0.0211 µM	47.4	11.9	21.1
HPLM + 10% dialyzed FBS, 0.0632 µM	122	106	94.9
HPLM + 10% dialyzed FBS, 0.19 µM	117	103	98
HPLM + 10% dialyzed FBS, 0.569 µM	113	101	92.5
HPLM + 10% dialyzed FBS, 1.71 µM	124	101	85
HPLM + 10% dialyzed FBS, 5.12 µM	110	102	90
HPLM + 10% dialyzed FBS, 15.4 µM	102	94.4	81.3
HPLM + 10% dialyzed FBS, 46.1 µM	110	87.4	75.6
RPMI 5 mM glucose + 10% FBS, 0.000781 µM	83.4	85	104
RPMI 5 mM glucose + 10% FBS, 0.00234 µM	98.3	86.8	115
RPMI 5 mM glucose + 10% FBS, 0.00702 µM	96.3	96	112
RPMI 5 mM glucose + 10% FBS, 0.0211 µM	21.7	12.6	17.1
RPMI 5 mM glucose + 10% FBS, 0.0632 µM	90.8	101	119
RPMI 5 mM glucose + 10% FBS, 0.19 µM	112	103	127
RPMI 5 mM glucose + 10% FBS, 0.569 µM	91.6	99.7	121
RPMI 5 mM glucose + 10% FBS, 1.71 µM	97.7	103	139
RPMI 5 mM glucose + 10% FBS, 5.12 µM	98.1	95.7	118
RPMI 5 mM glucose + 10% FBS, 15.4 µM	96.2	80.3	103
RPMI 5 mM glucose + 10% FBS, 46.1 µM	94.2	76.8	87.8
RPMI 5 mM glucose + 10% dialyzed FBS, 0.000781 µM	91	92	92.8
RPMI 5 mM glucose + 10% dialyzed FBS, 0.00234 µM	85.3	93.9	92.6
RPMI 5 mM glucose + 10% dialyzed FBS, 0.00702 µM	94.4	101	89.8
RPMI 5 mM glucose + 10% dialyzed FBS, 0.0211 µM	75.4	47.1	17
RPMI 5 mM glucose + 10% dialyzed FBS, 0.0632 µM	103	110	113
RPMI 5 mM glucose + 10% dialyzed FBS, 0.19 µM	97.4	100	112
RPMI 5 mM glucose + 10% dialyzed FBS, 0.569 µM	109	102	106
RPMI 5 mM glucose + 10% dialyzed FBS, 1.71 µM	106	105	98.4
RPMI 5 mM glucose + 10% dialyzed FBS, 5.12 µM	96.5	101	93.7
RPMI 5 mM glucose + 10% dialyzed FBS, 15.4 µM	103	90.3	78.3
RPMI 5 mM glucose + 10% dialyzed FBS, 46.1 µM	100	81.5	55.8

C=CCO/N=C(/C[C@H]1O[C@@H]2O[C@]3(C)CC[C@H]4[C@H](C)CC[C@@H]([C@H]1C)[C@@]24OO3)[C@H]1O[C@@H]2O[C@]3(C)CC[C@H]4[C@H](C)CC[C@@H]([C@H]1C)[C@@]24OO3
AUC of viability dose-response curve
Settings	NOMO1 [2]	P12-Ichikawa [1]	SEM cells [6]
HPLM + 10% dialyzed FBS	347	397	350
RPMI 5 mM glucose + 10% FBS	340	357	329
RPMI 5 mM glucose + 10% dialyzed FBS	338	359	328

C[C@@H]1C[C@H]2[C@@H]3\C=C(C)/C4=C/C5=C(C[C@]4(C)[C@H]3[C@@H](O)C[C@]2(C)[C@@]1(O)C(=O)CO)C=N[N]5C6=CC=CC=C6
AUC of viability dose-response curve
Settings	NOMO1 [2]	P12-Ichikawa [1]	SEM cells [6]
HPLM + 10% dialyzed FBS	425	308	296
RPMI 5 mM glucose + 10% FBS	446	280	300
RPMI 5 mM glucose + 10% dialyzed FBS	461	246	267

SEM cells [5], HPLM + 10% dialyzed FBS
Settings	cell viability [%]
0.000781 µM	143
0.00234 µM	123
0.00702 µM	112
0.0211 µM	109
0.0632 µM	101
0.19 µM	71.2
0.569 µM	66.9
1.71 µM	64.9
5.12 µM	72.3
15.4 µM	57.7
46.1 µM	36.4

N#Cc1ccc(C(c2ccc(C#N)cc2)n2cncn2)cc1
AUC of viability dose-response curve
Settings	HPLM + 10% dialyzed FBS	RPMI 5 mM glucose + 10% FBS	RPMI 5 mM glucose + 10% dialyzed FBS
NOMO1 [2]	442	450	466
P12-Ichikawa [1]	461	460	451

SEM cells [5], HPLM + 10% dialyzed FBS
Settings	cell viability [%]
0.000781 µM	121
0.00234 µM	118
0.00702 µM	131
0.0211 µM	130
0.0632 µM	40.1
0.19 µM	129
0.569 µM	140
1.71 µM	131
5.12 µM	54.4
15.4 µM	110
46.1 µM	111
